Experimental data taken from patent publication US20160361298A1, “METHODS AND COMPOSITIONS FOR TREATING CANCER” (Globavir BioSciences, Inc., priority 2015, published 2016).
pIC50: −log10 of the molar value. Read-outs that look alike come from different tables or passages of the source.

Legend:
[1] = tested on: U87MG (human glioblastoma); assay: Cancer cell cytotoxicity, CellTiter-Glo Luminescent Cell Viability Assay; details: U-87 MG, read-out: IC50 (μM) cancer cell cytotoxicity
Method: (§1) TDO/IDO test compounds were incubated with various cancer cell lines to determine the effect of the test compounds on cancer cell death. The CellTiter-Glo Luminescent Cell Viability Assay was used to determine cell cytotoxicity by determining the number of viable cells in culture based on quantitation of ATP, which signals the presence of metabolically active cells.

[2] = tested on: Pano2 (murine pancreatic); assay: as above; details: Mus musculus, PanO2, read-out: IC50 (μM) cancer cell cytotoxicity
Method: as §1

Recombinant TDO = target: T1, Recombinant TDO (Homo sapiens, UniProt P48775); assay: TDO Inhibition Assay (recombinant enzyme, absorbance at 321 nm); format: biochemical; details: for activity at 1 µM: 1 μM test compound, read-out: TDO Inhibition Assay Screening (Activity, %) 1 μM; for activity at 10 µM: read-out: TDO Inhibition Assay Screening (Activity, %) 10 μM
T1 construct: Recombinant TDO or IDO was diluted to 16 ng/uL and 50 uL loaded into wells of a 96-well plate
T1 sequence (P48775 whole entry): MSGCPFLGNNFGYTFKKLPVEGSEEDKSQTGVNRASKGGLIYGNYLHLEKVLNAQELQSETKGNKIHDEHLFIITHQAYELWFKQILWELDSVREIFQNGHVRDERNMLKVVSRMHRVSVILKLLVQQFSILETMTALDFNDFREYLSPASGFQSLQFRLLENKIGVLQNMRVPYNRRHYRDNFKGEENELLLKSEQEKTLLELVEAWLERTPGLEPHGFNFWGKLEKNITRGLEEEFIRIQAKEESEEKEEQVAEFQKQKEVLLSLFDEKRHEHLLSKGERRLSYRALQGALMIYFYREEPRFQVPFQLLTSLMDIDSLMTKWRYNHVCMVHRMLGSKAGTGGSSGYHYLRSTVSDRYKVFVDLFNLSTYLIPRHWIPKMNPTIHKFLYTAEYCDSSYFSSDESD
Method: Inhibition of IDO by TDO/IDO test inhibitors was assessed in vitro. A substrate mixture was prepared by mixing equal volumes of 80 mM ascorbic acid diluted in 0.405 M Tris, pH 8.0 and a mixture of […] L-tryptophan, 9,000 units/mL catalase and 40 uM methyene blue. Recombinant TDO or IDO was diluted to 16 ng/uL and 50 uL loaded into wells of a 96-well plate. The reaction was started by the addition of 50 uL substrate mixture. The plate was read in kinetic mode at 321 nm for 5 minutes. The rate of increase of absorbance measured in the absence of a TDO/IDO inhibitor is taken as the maximum rate of enzymatic activity.

GL261 (murine glioma) = assay: Cancer cell cytotoxicity, CellTiter-Glo Luminescent Cell Viability Assay; details: Mus musculus, GL261, read-out: IC50 (μM) cancer cell cytotoxicity
Method: as §1

[3] = tested on: HuT78 (human CTCL cell line); assay: as above; details: HuT78, read-out: IC50 (μM) cancer cell cytotoxicity
Method: as §1

[4] = tested on: HT29 (human colorectal adenocarcinoma); assay: as above; details: HT-29, read-out: IC50 (μM) cancer cell cytotoxicity
Method: as §1

Recombinant IDO = target: T2, Recombinant IDO (Homo sapiens, UniProt P14902); assay: IDO Inhibition Assay (recombinant enzyme, absorbance at 321 nm); format: biochemical; details: for activity at 1 µM: 1 μM test compound, read-out: IDO Inhibition Assay Screening (Activity, %) 1 μM; for activity at 10 µM: read-out: IDO Inhibition Assay Screening (Activity, %) 10 μM
T2 construct: Recombinant TDO or IDO was diluted to 16 ng/uL and 50 uL loaded into wells of a 96-well plate
T2 sequence (P14902 whole entry): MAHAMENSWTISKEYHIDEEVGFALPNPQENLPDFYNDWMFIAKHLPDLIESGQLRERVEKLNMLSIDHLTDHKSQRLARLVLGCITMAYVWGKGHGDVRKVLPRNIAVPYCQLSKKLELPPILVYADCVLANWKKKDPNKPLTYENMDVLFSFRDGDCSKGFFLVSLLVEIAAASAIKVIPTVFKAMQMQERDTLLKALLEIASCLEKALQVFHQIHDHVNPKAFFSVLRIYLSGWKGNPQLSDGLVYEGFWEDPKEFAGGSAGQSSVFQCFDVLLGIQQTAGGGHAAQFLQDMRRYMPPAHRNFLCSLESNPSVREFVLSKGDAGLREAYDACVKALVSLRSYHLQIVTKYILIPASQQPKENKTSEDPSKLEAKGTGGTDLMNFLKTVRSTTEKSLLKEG
Method: Inhibition of IDO by TDO/IDO test inhibitors was assessed in vitro. […] Recombinant TDO or IDO was diluted to 16 ng/uL and 50 uL loaded into wells of a 96-well plate. The reaction was started by the addition of 50 uL substrate mixture. […] The rate of increase of absorbance measured in the absence of a TDO/IDO inhibitor is taken as the maximum rate of enzymatic activity.

CT26 (murine colon) = assay: Cancer cell cytotoxicity, CellTiter-Glo Luminescent Cell Viability Assay; details: Mus musculus, CT26, read-out: IC50 (μM) cancer cell cytotoxicity
Method: as §1

[5] = tested on: SCC4 (human squamous cell carcinoma); assay: as above; details: SCC-4, read-out: IC50 (μM) cancer cell cytotoxicity
Method: as §1

[6] = 10 μM test compound, remaining enzyme activity
[7] = read-out: TDO Inhibition Assay Dose Resp. (IC50)
[8] = read-out: IDO Inhibition Assay Dose Resp. (IC50)

Compound | IC50 [1] | IC50 [2] | activity at 1 µM (Recombinant TDO; remaining enzyme activity) | activity at 10 µM (Recombinant TDO; [6]) | pIC50 (Recombinant TDO; [7]) | IC50 (GL261 (murine glioma)) | IC50 [3] | IC50 [4] | pIC50 (Recombinant IDO) | activity at 1 µM (Recombinant IDO; remaining enzyme activity) | activity at 10 µM (Recombinant IDO; [6]) | IC50 (CT26 (murine colon)) | IC50 [5] | pIC50 (Recombinant IDO; [8]) | activity at 10 µM (Recombinant TDO) | activity at 10 µM (Recombinant IDO) | pIC50 (Recombinant TDO)
Clc1ccc(C(Cn2ccnc2)OCc2csc3c(Cl)cccc23)c(Cl)c1 (stereo not shown) [Sertaconazole] | 13.9 µM | 16.1 µM | 74% | 15% | 5.39 | 30.1 µM | 17.7 µM | 11.9 µM | 5.08 | 63% | 37% | 10.9 µM |  |  |  |  | 
CC1=NN(c2ccc(C)c(C)c2)C(=O)/C1=N\Nc1cccc(-c2cccc(C(=O)O)c2)c1O [Eltrombopag] |  |  |  | 5% | 5.98 |  |  |  |  |  | 83% |  |  |  |  |  | 
Clc1ccc(C(Cn2ccnc2)OCc2ccc(Sc3ccccc3)cc2)c(Cl)c1 (stereo not shown) [Fenticonazole] | 15.6 µM | 16.1 µM | 89% | -34% | 5.56 | 15.2 µM | 9.16 µM | 13.9 µM |  | 85% | 56% | 7.6 µM | 78.8 µM |  |  |  | 
Clc1ccc(C(Cn2ccnc2)OCc2ccsc2Cl)c(Cl)c1 (stereo not shown) [Tioconazole] | 26.1 µM | 22.2 µM | 83% | 28% | 5.38 | 27 µM | 12.1 µM | 18.2 µM |  | 76% | 47% | 14 µM | 28.2 µM | 5.03 |  |  | 
O=C(O)c1ccc(-n2nc(-c3ccccc3O)nc2-c2ccccc2O)cc1 [Deferasirox] |  |  | 107% | 69% |  |  |  |  |  | 90% | 85% |  |  |  |  |  | 
CCC(C)n1ncn(-c2ccc(N3CCN(c4ccc(OCC5COC(Cn6cncn6)(c6ccc(Cl)cc6Cl)O5)cc4)CC3)cc2)c1=O (stereo not shown) [Itraconazole] |  |  | 93% | 82% | 4.33 |  |  |  |  | 72% | 56% |  |  | 4.76 |  |  | 
C=C(c1ccccc1OCc1cccc(Cl)c1)n1ccnc1 [Cloconazole] | 26.7 µM | 9.61 µM |  |  | 6.27 | 20.3 µM | 19.4 µM | 10.7 µM |  |  |  | 8.06 µM | 46.2 µM |  | 5% | 76% | 
Clc1cccc(C(c2ccc3[nH]cnc3c2)n2ccnc2)c1 (stereo not shown) [Liarozole] |  |  | 89% | 43% | 5.03 |  |  |  |  | 99% | 88% |  |  | 4.20 |  |  | 
O=C(Nc1ccc([N+](=O)[O-])cc1Cl)c1cc(Cl)ccc1O [Niclosamide] |  |  | 82% | 62% |  |  |  |  |  | 84% | 75% |  |  |  |  |  | 
Clc1ccc(COC(Cn2ccnc2)c2ccc(Cl)cc2Cl)cc1 (stereo not shown) [Econazole] |  |  | 80% | 20% | 5.27 |  |  |  | 5.31 | 71% | 28% |  |  |  |  |  | 
NS(=O)(=O)NCCNc1nonc1C(=NO)Nc1ccc(F)c(Br)c1 [INCB024360] |  | 53.5 µM |  |  |  | 48.9 µM | 72.5 µM | 53.7 µM |  |  |  | 69.9 µM |  |  |  |  | 
Clc1ccc(C(Cn2ccnc2)OCc2c(Cl)cccc2Cl)c(Cl)c1 (stereo not shown) [Isoconazole] | 63.9 µM | 12.6 µM | 58% | 17% |  | 15.6 µM | 15.7 µM | 14.8 µM | 4.84 | 76% | 53% | 14.8 µM | 83.8 µM |  |  |  | 5.39
Clc1ccc(COC(Cn2ccnc2)c2ccc(Cl)cc2Cl)c(Cl)c1 (stereo not shown) [Miconazole] |  |  | 74% | 16% | 5.43 |  |  |  | 5.33 | 67% | 27% |  |  |  |  |  | 
